Reference: US11840521B2, “Modulators of Mas-related G-protein receptor X4 and related products and methods” (Escient Pharmaceuticals, Inc., priority 2019, dated 2023)

Target: MRGPRX4 (Homo sapiens, UniProt Q96LA9)
Experiment: MRGPR X4 antagonist activity, IP-One Gq HTRF assay in stably transfected HEK cells (versus agonist bilirubin, deoxycholic acid, conjugated bilirubin, urobilin, obeticholic acid or BAR502)
Assay type: cell-based
Design: expressed in transfected cells; host or cells: HEK cells, stably transfected
Details: versus 10 μM Bilirubin agonist; HEK cells expressing human MRGPR X4; read-out: MRGPR4 Antagonist Activity
Experimental: HEK cells stably transfected to express human MRGPR X4 were maintained in an incubator at 37° C. with 5% CO2 and grown in DMEM media with 10% fetal bovine serum (FBS) and 1% each of sodium pyruvate, Glutamax, penicillin/streptomycin, and Geneticin. HEK cells stably transfected to express mouse MRGPR A1 were maintained in the same incubator and grown in DMEM media with 10% FBS, 1% each of sodium pyruvate, Glutamax, penicillin/streptomycin, Geneticin, and 2.2 mg/mL Hygromycin.
Cells were plated in a 384-well assay plate at 20,000 cells per well in 12 μL of Opti-MEM and kept in an incubator overnight. On the day of the assay, compounds solubilized at 10 mM in DMSO were added as a 10-point curve (10 uM final top concentration with 1:3 serial dilutions) using a Tecan D300E digital dispenser. […] Final concentrations of DMSO were kept consistent across the plate. Plates were incubated in the dark for 1 h at 37° C. and then for 30 minutes at room temperature. IP-1 standards and HTRF detection reagents were added according to the IP-One—Gq Kit purchased from Cisbio (part number 62IPAPEJ) and incubated in the dark for 1 h at room temperature. The plate was read on a Molecular Devices SpectraMax iD5 plate reader. The HTRF ratio was calculated from the raw data and graphed using GraphPad Prism to calculate an IC50 value for each compound.

Chain of MRGPRX4 (Q96LA9 whole entry): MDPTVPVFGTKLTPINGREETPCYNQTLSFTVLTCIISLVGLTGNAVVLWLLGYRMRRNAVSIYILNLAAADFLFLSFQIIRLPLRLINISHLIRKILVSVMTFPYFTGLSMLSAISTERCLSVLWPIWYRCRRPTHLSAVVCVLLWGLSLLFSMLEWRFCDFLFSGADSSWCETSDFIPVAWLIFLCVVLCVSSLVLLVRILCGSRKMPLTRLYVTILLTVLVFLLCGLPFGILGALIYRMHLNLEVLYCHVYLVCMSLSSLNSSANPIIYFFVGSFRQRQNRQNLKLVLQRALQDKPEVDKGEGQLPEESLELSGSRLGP

Structure (SMILES)	IC50
O=C(O)c1ccc(COc2ccc(Cl)cc2Cl)s1 [Compound 1-43]	500 to 1000 nM
O=C(O)c1cc(COc2ccc(Cl)cc2Cl)ccc1Cl [Compound 1-44]	500 to 1000 nM
CCOc1ccc(OCc2cccc(C(=O)O)c2)cc1 [Compound 1-45]	1000 to 2500 nM
O=C(O)c1cccc(COc2ccc(C3CC3)cc2)c1 [Compound 1-46]	1000 to 2500 nM
O=C(O)c1cccc(COc2ccc(OC(F)(F)F)cc2)c1 [Compound 1-47]	100 to 500 nM
O=C(O)c1cccc(COc2cccc3c2OC(F)(F)O3)c1 [Compound 1-48]	> 2500 nM
O=C(O)c1cccc(COc2cccc3ccccc23)c1 [Compound 1-49]	500 to 1000 nM
Cc1cc(Cl)cc(Cl)c1OCc1cccc(C(=O)O)c1 [Compound 1-50]	1000 to 2500 nM
Cc1cc(-c2ccccc2)ccc1OCc1cccc(C(=O)O)c1 [Compound 1-51]	1000 to 2500 nM
O=C(O)c1cccc(COc2ccc(Oc3ccccc3)cc2)c1 [Compound 1-52]	> 2500 nM
Cc1cc(OCc2cccc(C(=O)O)c2)cc(C)c1Cl [Compound 1-53]	500 to 1000 nM
CC(=O)c1ccc(OCc2cccc(C(=O)O)c2)cc1 [Compound 1-54]	> 2500 nM
Cc1cc(Cl)ccc1OCc1cccc(C(=O)O)n1 [Compound 1-57]	100 to 500 nM
O=C(O)c1cccc(COc2ccc3ccccc3c2)c1F [Compound 1-58]	< 100 nM
O=C(O)c1cccc(COc2ccc(Cl)c(F)c2)c1 [Compound 1-59]	< 100 nM
Cc1ccc(OCc2cccc(C(=O)O)c2)c(C)c1F [Compound 1-60]	500 to 1000 nM
O=C(O)c1cccc(COc2ccc3c(c2)OC(F)(F)O3)c1 [Compound 1-61]	500 to 1000 nM
O=C(O)c1cccc(COc2ccc(Cl)cc2C(F)(F)F)c1F [Compound 1-62]	< 100 nM
Cc1cc(Cl)ccc1OCc1cccc(C(=O)O)c1F [Compound 1-63]	< 100 nM
O=C(O)c1cccc(COc2ccc(C(F)(F)F)cc2F)c1 [Compound 1-64]	< 100 nM
COc1cc(OCc2cccc(C(=O)O)c2)ccc1C(F)(F)F [Compound 1-67]	500 to 1000 nM
N#Cc1ccc(OCc2cccc(C(=O)O)c2)c(C(F)(F)F)c1 [Compound 1-68]	100 to 500 nM
O=C(O)c1cccc(COc2cccc(-c3ccc(F)cc3)c2)c1 [Compound 1-69]	500 to 1000 nM
N#Cc1cc(OCc2cccc(C(=O)O)c2)ccc1Cl [Compound 1-70]	1000 to 2500 nM

Structure (SMILES)	IC50
Cc1cc(F)c(F)cc1OCc1cccc(C(=O)O)c1 [Compound 1-71]	500 to 1000 nM
Cc1cc(OCc2cccc(C(=O)O)c2)ccc1Cl [Compound 1-72]	500 to 1000 nM
O=C(O)c1cccc(COc2ccc(C(F)(F)F)cc2C(F)(F)F)c1 [Compound 1-73]	< 100 nM
O=C(O)c1cccc(COc2ccc3c(c2)CCC3=O)c1 [Compound 1-74]	> 2500 nM
O=C(O)c1cccc(COc2cccc(Cl)c2F)c1 [Compound 1-75]	1000 to 2500 nM
N#Cc1c(Cl)cccc1OCc1cccc(C(=O)O)c1 [Compound 1-76]	100 to 500 nM
Cc1ccc(OCc2cccc(C(=O)O)c2)c(F)c1 [Compound 1-77]	1000 to 2500 nM
O=C(O)c1cccc(COc2cccc(C(F)(F)F)c2Cl)c1 [Compound 1-79]	100 to 500 nM
O=C(O)c1cccc(COc2ccc(-n3cccc3)cc2)c1 [Compound 1-80]	100 to 500 nM
O=C(O)c1cccc(COc2ccc(-c3ccccc3)cc2)c1 [Compound 1-81]	> 2500 nM
O=C(O)c1cc(Cl)cc(COc2ccc(C(F)(F)F)cc2Cl)c1 [Compound 1-82]	< 100 nM
O=C(O)c1cc(COc2ccc(C(F)(F)F)cc2Cl)ccc1Cl [Compound 1-83]	100 to 500 nM
CCOc1ccccc1OCc1cccc(C(=O)O)c1 [Compound 1-84]	1000 to 2500 nM
CC(C)c1ccc(OCc2cccc(C(=O)O)c2)cc1 [Compound 1-86]	500 to 1000 nM
O=C(O)c1cccc(COc2cccc3c2CCCC3=O)c1 [Compound 1-87]	1000 to 2500 nM
Cc1ccc(C(C)(C)C)c(OCc2cccc(C(=O)O)c2)c1 [Compound 1-88]	1000 to 2500 nM
Cc1ccc(OCc2cccc(C(=O)O)c2)cc1F [Compound 1-89]	100 to 500 nM
N#Cc1ccc(OCc2cccc(C(=O)O)c2)cc1Cl [Compound 1-90]	100 to 500 nM
O=C(O)c1cccc(COc2ccc(F)cc2C(F)(F)F)c1 [Compound 1-91]	500 to 1000 nM
COc1ccc(OCc2cccc(C(=O)O)c2)c(Cl)c1 [Compound 1-92]	1000 to 2500 nM
Cc1cc(F)ccc1OCc1cccc(C(=O)O)c1 [Compound 1-94]	1000 to 2500 nM
Cc1c(Cl)cccc1OCc1cccc(C(=O)O)c1 [Compound 1-95]	100 to 500 nM
COc1ccc(OCc2cccc(C(=O)O)c2)c(F)c1F [Compound 1-96]	500 to 1000 nM
O=C(O)c1cccc(COc2ccc3ccsc3c2)c1 [Compound 1-97]	100 to 500 nM

Structure (SMILES)	IC50
O=C(O)c1cccc(COc2ccc3ccncc3c2)c1 [Compound 1-98]	500 to 1000 nM
Cc1cc(C#N)ccc1OCc1cccc(C(=O)O)c1 [Compound 1-99]	100 to 500 nM
O=C(O)c1cccc(COc2cccc(C(F)F)c2)c1 [Compound 1-100]	> 2500 nM
O=C(O)c1cccc(COc2ccc(C(F)(F)F)nc2)c1 [Compound 1-102]	1000 to 2500 nM
O=C(O)c1cccc(COc2ccc(OC(F)(F)F)cc2Cl)c1 [Compound 1-103]	< 100 nM
Cc1cc(C(C)(C)C)ccc1OCc1cccc(C(=O)O)c1 [Compound 1-108]	1000 to 2500 nM
O=C(O)c1cccc(COc2cccc(Br)c2)c1 [Compound 1-109]	500 to 1000 nM
O=C(O)c1cccc(COc2ccc(Br)cc2)c1 [Compound 1-110]	100 to 500 nM
O=C(O)c1cccc(COc2ccc(C(F)(F)F)c(F)c2)c1 [Compound 1-112]	< 100 nM
O=C(O)c1ccc(COc2ccc(Cl)cc2Cl)cc1 [Compound 1-113]	500 to 1000 nM
O=C(O)c1ccccc1COc1ccc(Cl)cc1Cl [Compound 1-114]	1000 to 2500 nM
O=C(O)c1cncc(COc2ccc(Cl)cc2Cl)n1 [Compound 1-116]	500 to 1000 nM
COC(=O)c1cccc(COc2ccc(C(F)(F)F)cc2Cl)c1F [Compound 1-117]	500 to 1000 nM
O=C(O)c1cccc(COc2ccc(C(F)(F)F)c(Cl)c2)c1 [Compound 1-118]	< 100 nM
O=C(O)c1cccc(COc2ccc(C(F)(F)F)cc2Br)c1 [Compound 1-120]	< 100 nM
O=C(O)c1cc(F)cc(COc2ccc(OC(F)(F)F)cc2Cl)c1 [Compound 1-121]	100 to 500 nM
O=C(O)c1cccc(COc2ccc(C3CC3)cc2Cl)c1 [Compound 1-122]	100 to 500 nM
O=C(O)c1cc(F)cc(COc2ccc(Cl)c(Cl)c2Cl)c1 [Compound 1-123]	< 100 nM
O=C(O)c1cccc(COc2ccc(Cl)c(Cl)c2Cl)c1F [Compound 1-124]	< 100 nM
O=C(O)c1cccc(COc2ccc(OC(F)(F)F)cc2Cl)n1 [Compound 1-125]	< 100 nM
CC(=O)c1ccc(OCc2cccc(C(=O)O)c2)c(Cl)c1 [Compound 1-126]	1000 to 2500 nM
Cc1cc(C(F)(F)F)ccc1OCc1cccc(C(=O)O)n1 [Compound 1-127]	< 100 nM
O=C(O)c1cccc(COc2ccc3ccoc3c2)c1 [Compound 1-128]	500 to 1000 nM
O=C(O)c1cccc(COc2ccc(OC(F)(F)F)c(Cl)c2)n1 [Compound 1-129]	< 100 nM
